Where “and” joins values, the source holds several entries; their conditions need not be identical. Identical values can stand only once.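 Protocol summary: plate cells (96-well), add compound at 5 concentrations, incubate 48 h, interpolate endpoints linearly. GI50 = concentration required for 50% inhibition of growth. The concentration for full growth arrest is given as TGI.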

The subject of this test is MDA-MB-468 breast. The test is described as follows: NCI tumour cell line growth inhibition, 48 h.
As for `Cn1c(-c2c(N)n(CCCN3CCOCC3)c3nc(C#N)c(C#N)nc23)nc2ccccc21`, the GI50 is 4640 nM and the TGI is > 100 µM.

`COc1cc2nc3cc([N+](=O)[O-])ccc3c(NCCNCC(C)(C)O)c2cc1OC`: the GI50 was 220 nM and the TGI is 0.614 µM.

With `CC1OC(O[C@@H]2[C@H](O)C(CO)OC(O[C@H]3COC(O[C@H]4CC[C@]5(C)[C@H]6CC[C@]78OC[C@@]9(CCC(C)(C)C[C@H]97)[C@H](O)C[C@@]8(C)[C@]6(C)CC[C@H]5C4(C)C)[C@@H](OC4OC(CO)[C@@H](O)[C@@H](O)[C@@H]4O)[C@@H]3O)[C@H]2OC2OC[C@@H](O)[C@@H](O)[C@@H]2O)[C@@H](O)[C@@H](O)[C@H]1O` (some centres not stated), the GI50 is 2110 nM and the TGI came out at 4.33 µM.

Consider `Cn1cc(C2=C(c3cn(CCCCCSC(=N)N)c4ccccc34)C(=O)NC2=O)c2ccccc21`, for which the GI50 is 1550 nM and the TGI turned out to be 5.46 µM.

For `Cn1ncc2ncc(-c3ccc4ncc(C#N)c(N5CCc6cc(F)c(Cl)cc65)c4c3)cc21`, the GI50 was 2440 nM and the TGI came to 10.6 µM.

With `CCN(CC)Cc1cc2[nH]c3c4ccc(Cl)cc4ncc3c2cc1OC`, the GI50 was 1870 nM and 1520 nM; the TGI was 3.64 µM and 3 µM.

Regarding `COc1ccc2c(OCc3nnc4ccc(-c5ccccc5)nn34)ccnc2c1`, the GI50 was 3220 nM and the TGI was > 100 µM.

In the case of `O=C1/C=C/[C@@H](O)[C@@H]2C[C@@H](O)C[C@H]2/C=C/CCC[C@H](C(F)(F)F)O1`, the GI50 was 23.3 nM and the TGI worked out at 0.0691 µM.

Turning to `Cc1cc(Cl)nc(N(CCCNc2ccnc3cc(Cl)ccc23)Cc2ccco2)n1`, the GI50 is 1120 nM and the TGI turned out to be 3.94 µM.

For `CC[C@H](C)[C@H](NC(=O)[C@H]1CCCCN1C)C(=O)N(C)[C@H](C[C@@H](OC(C)=O)c1nc(C(=O)N[C@@H](Cc2ccccc2)C[C@H](C)C(=O)O)cs1)C(C)C`, the GI50 is 0.378 nM and 1.65 nM; the TGI is 0.00398 µM.

Regarding `N#CC1c2ccccc2C=CN1C(=O)N(c1ccccc1)c1ccccc1` (configuration not stated), the GI50 is 1700 nM and the TGI is 3.4 µM.

`CC[n+]1c(/C=C/C=C2\N(C)c3ccccc3C2(C)C)sc2ccccc21`: the GI50 was 2770 nM and the TGI is 8.44 µM.

As to `COC(=O)c1ccc(NC(=O)Oc2ccc(N(CCCl)CCCl)cc2)cc1`, the GI50 is 1220 nM and the TGI worked out at 9.77 µM.

Consider `COc1ccc(N=N/C(C(=O)C(F)(F)F)=C(\O)c2ccc(Cl)cc2)cc1`, for which the GI50 is 1840 nM and the TGI is 5.68 µM.

For the compound `CC(=O)c1c(C)[nH]c(-c2nc3ccc(N4CCN(C)CC4)cc3[nH]2)c1-c1ccccc1`, the GI50 is 361 nM and the TGI stood at 9.27 µM.

As to `Oc1[nH]c2ccccc2c1/C=c1/cc2c(c(-c3ccc(F)cc3)n1)=Nc1ccccc1-2`, the GI50 was 282 nM and the TGI came to 0.978 µM.

As for `CN(Cc1cnc2nc(N)nc(N)c2n1)c1ccc(C(=O)NC(CCC(=O)O)C(=O)O)cc1Br` (configuration not stated), the GI50 is < 10 nM and the TGI was determined as 1.91 µM.

As to `Cc1cc([N+](=O)[O-])c2ccccc2[n+]1[O-]`, the GI50 was 180 nM and 121 nM; the TGI is 0.512 µM and 0.369 µM.

On to `CCCCCCCCCCCC[n+]1ccc2ccccc2c1`, for which the GI50 was 206 nM and the TGI worked out at 0.808 µM.

In the case of `N=c1c2c(=N)n3c(nc2nc2n1-c1ccccc1Sc1ccccc1-2)sc1cc(Cl)ccc13`, the GI50 was 1340 nM and the TGI was 5.41 µM.

As to `O=C(Nc1nc2ccccc2s1)Nc1ccc([N+](=O)[O-])cc1Cl`, the GI50 was 10100 nM and the TGI was determined as 27.2 µM.

For the compound `O=C1Cc2cc(C(=O)NC3C[C@H]4CC[C@@H](C3)N4S(=O)(=O)CC3CCN(CCCC(F)(F)F)CC3)c(Cl)cc2N1` (some centres not stated), the GI50 is 27000 nM and the TGI is > 100 µM.

Turning to `O=[N+]([O-])c1cccc(C2CC(c3ccccc3)=Nc3ccccc3S2)c1` (configuration not stated), the GI50 was 13400 nM and the TGI was 31.2 µM.

As for `CN1CSC(=S)N(Cc2ccccc2)C1`, the GI50 is 2020 nM and the TGI was determined as 6.03 µM.

With `CO[C@H]1C[C@@H]2CC[C@@H](C)[C@@](O)(O2)C(=O)C(=O)N2CCCC[C@H]2C(=O)O[C@H]([C@H](C)C[C@@H]2CC[C@@H](OCCO)[C@H](OC)C2)CC(=O)[C@H](C)C=C(C)[C@@H](O)[C@@H](OC)C(=O)[C@H](C)C[C@H](C)/C=C/C=C/C=C1C`, the GI50 was < 11.7 nM and the TGI was determined as 14.9 µM.

With `COc1cc(-c2nn(-c3cccc(NC(=O)c4ccc(Cl)c(C(F)(F)F)c4)c3)cc2-c2ccncc2)ccc1Cl`, the GI50 was 2740 nM and the TGI is > 32.5 µM.

`O=C(COc1cccc(/C=C2\CSc3ccccc3C2=O)c1)Nc1nccs1`: the GI50 is 1590 nM and the TGI was found to be 3.15 µM.

Regarding `CCOC(=O)c1cnc2c(C)cccc2c1Nc1ccc(C(C)=O)cc1`, the GI50 was 26300 nM and the TGI was > 100 µM.

For the compound `NC(=S)c1c(N)n(C2OC(CO)C(O)C2O)c2ncnc(N)c12` (configuration not stated), the GI50 was 135 nM and the TGI was 0.326 µM.

Consider `COc1nnc2ccc(N3CCC(c4ccc(OCCN5CCN(C)C(=O)[C@H]5C)cc4)CC3)nn12`, for which the GI50 was 52 nM and the TGI was > 34.8 µM.

For the compound `CCn1c(-c2nonc2N)nc2cncc(C(=O)N3CC[C@H](N)C3)c21`, the GI50 was 4570 nM and the TGI was 24.5 µM.

As for `CSc1ccc2c(c1)C(N1CCN(C)CC1)Cc1ccccc1S2` (configuration not stated), the GI50 is 1470 nM and the TGI turned out to be 3.06 µM.

In the case of `COC(=O)[C@H]1CCCN1C(=O)[C@H]1CCCN1C(=O)[C@H](Cc1c[nH]c2ccccc12)NC(=S)Nc1cc(C(F)(F)F)cc(C(F)(F)F)c1`, the GI50 is 3680 nM and the TGI came to 68.8 µM.

For `CC[C@H](C)[C@H](NC(=O)CN(C)C)C(=O)N(C)[C@H](C[C@@H](OC(C)=O)c1nc(C(=O)NC23CC(C(=O)OC)(C2)C3)cs1)C(C)C`, the GI50 is 130 nM and the TGI was > 25 µM.

As to `CCN1CCN(C(=O)[C@]23CCC(C)(C)C[C@@H]2C2=CC[C@@H]4[C@@]5(C)C/C(=C/c6ccncc6)C(=O)C(C)(C)[C@@H]5CC[C@@]4(C)[C@]2(C)CC3)CC1`, the GI50 was 1430 nM and the TGI turned out to be 3.14 µM.

Consider `COc1cc2c(=O)[nH]c3cc([N+](=O)[O-])ccc3c2cc1[N+](=O)[O-]`, for which the GI50 is 1030 nM and the TGI amounted to 4.18 µM.

`CN(CCCNC(=O)CCOCCOCCOCCNC(=O)Cc1ccc2ccc3cccc4ccc1c2c34)CCCNc1cc(-c2ccc3ccccc3c2)nc2ccccc12`: the GI50 was 509 nM and the TGI worked out at 1.03 µM.

Regarding `C=CC(=O)N1CC2(CC(n3nc(-c4ccc5c(cnn5C)c4)c(-c4c(Cl)c(C)cc5[nH]ncc45)c3C)C2)C1`, the GI50 is 2670 nM and the TGI was found to be 9.27 µM.

With `O=c1oc2ccc(-c3ccc(F)cc3F)cc2c(=O)n1-c1ccc(F)c(F)c1`, the GI50 was 1010 nM and the TGI was 4.23 µM.

For `CN1CCN(CCCOc2cccc3nc(Nc4ccc(Cl)c(C(F)(F)F)c4)ccc23)CC1`, the GI50 was 1600 nM and the TGI was 3.22 µM.

Turning to `O=C(CN1C(=O)S/C(=C\C(Cl)=C\c2ccccc2)C1=O)NC1C=CS(=O)(=O)C1` (configuration not stated), the GI50 was 531 nM and the TGI worked out at 2.29 µM.

On to `COc1ccc(/C(C#N)=C2C=C/C(=N/O)c3ccccc3\2)cc1`, for which the GI50 is 395 nM and the TGI amounted to 16.5 µM.

Turning to `O=C1NC(=NCCCc2ccccc2)S/C1=C\c1ccc2ncccc2c1`, the GI50 was 4370 nM and the TGI came to 17.4 µM.

With `COc1ccc(N(C)c2nc(N)nc3sc4c(c23)CCCC4)cc1`, the GI50 is < 10 nM.

Regarding `CN1CCN(c2nc(-c3cnc4ccccc4n3)cc3ccccc23)CC1`, the GI50 was 4980 nM and the TGI was 10.6 µM.

For the compound `CN(CC(=O)N(Cc1ccc(C2CCCCC2)cc1)c1ccc(C(=O)O)cc1)S(=O)(=O)c1c(F)c(F)c(F)c(F)c1F`, the GI50 is 1760 nM and the TGI amounted to 3.27 µM.

As for `Cn1ncc(Cl)c1-c1cc(C(=O)N[C@H](CN)Cc2ccc(F)c(F)c2)oc1Cl`, the GI50 was < 16.9 nM and 19.4 nM; the TGI is 0.282 µM and 0.458 µM.

As for `c1ccc2c3c([nH]c2c1)C(c1ccc(C2NCCc4c2[nH]c2ccccc42)cc1)NCC3` (configuration not stated), the GI50 was 367 nM and the TGI was determined as 1.34 µM.

In the case of `CC(=O)[O][Hg][c]1c(C)c(C)cc(C)c1C`, the GI50 was 793 nM and the TGI stood at 2.15 µM.

Source of the values: PubChem BioAssay (NCI).
